Assays:
[1] = Treatment of obesity, cellulitis, cellulite, acne
Protocol: Test series 1: The subjects were treated with vitamins, trace elements (ZK), and/or natural medicines individually and in combination.
Alkaline saturation of the body, at plasma pH of a maximum of 8.5.

[2] = Treatment of skin diseases (psoriasis, neurodermatitis); type: in vivo, human
Protocol: The term skin diseases describes in particular psoriasis and neurodermatitis. Basically, in the case of psoriasis patients the inventive dosing schedule is very welcome, because it counterbalances the negative effects of very strong medications that are administered in such cases; these improve by 65-80% with the inventive dosing schedule.
The subjects were treated with sodium carbonate with about 2 g+daily, after which the normal effect is achieved as described above; 1-2 weeks.

[3] = Treatment of cardiovascular diseases; type: in vivo, human
Protocol: The subjects were treated with sodium carbonate with about at least 2 g daily, with improvement occurring within short time, within about 1-2 weeks.

tumor tissue = assay: Treatment of cancer under medical supervision
Protocol: The subjects were treated under medical supervision with antibiotics and vitamins, trace elements, and/or natural medicines individually and in combination.

[4] = Treatment of acidosis, test series with and without Na
Protocol: In order to restore the body rapidly and successfully, test series were performed with and without Na.
Test series 1: The subjects were treated with vitamins, trace elements, and/or natural medicines individually and in combination.

[5] = test series 2, at least 2 g daily

Structure (SMILES): O=C([O-])[O-].[Na+].[Na+] [sodium carbonate]
- weight change ([1]; followed by high-dose vitamins and acids for several weeks, no yo-yo effect over about 2 years): extensive weight reduction
- rehabilitation ([1]; obesity, cellulitis, cellulite, acne): 95%
- uptake of mineral substances and natural medicines ([1]; test series 2): improved considerably
- time until tissue responded perceptibly [1, 5]: 1-2 weeks
- time until the normal effect is achieved ([2]; about 2 g+ daily): 1-2 weeks
- considerable improvement ([2]; psoriasis or neurodermatitis patients): about 80%
- time until improvement occurred ([3]; about at least 2 g daily): 1-2 weeks
- uptake of mineral substances and natural medicines ([3]; cardiovascular diseases): improved considerably
- rehabilitation ([3]; cardiovascular diseases, followed by vitamins and trace elements): 100%
- time until tissue reacted perceptibly (tumor tissue; cancer, at least 2 g daily): 1-2 weeks
- swelling reduced (tumor tissue; cancer, statements made by the subjects): about 80%
- reduction in tumor size (tumor tissue; cancer, to date): about 30%
- uptake of mineral substances and natural medicines (tumor tissue; used internally and externally): improved considerably
- uptake of mineral substances and natural medicines ([4]; test series 2): improved considerably and obviously
- time until improvement occurred [4, 5]: 1-2 weeks
- successful ([4]; test series 2, followed by vitamins and trace elements): 100%

From patent US20160095894A1, “DIETETIC MULTI-COMPONENT SYSTEM” (priority 2011, published 2016)
